US8551456B2, “Combination therapy and methods for treating bacterial biofilms” (priority 2010, dated 2013)
Entries after “also recorded” stand apart in the source; their conditions may differ.

Tests used:
[1] = test system: P. aeruginosa wild-type PAO1 biofilms; test: Combined TMP and antibiotic treatment of biofilms in the dark, CSLM LIVE/DEAD; type: cell-based, Pseudomonas aeruginosa; details: for gain in killing by the addition of TMP to the antibiotic / red (dead) staining with antibiotic + TMP versus antibiotic alone (FIGS. 5A and 5B) / Effect on P. aeruginosa biofilm cells, TMP + Antibiotic, pH 7: TMP 225 μM 10 min then antibiotic 100 μg ml^−1 2 h
Procedure: Biofilms were grown on glass slides as described above. […] Slides were incubated in tobramycin for 2 h at 37° C. All incubations were performed in the dark. Cell viability within biofilms was assessed using the LIVE/DEAD BacLight bacterial viability kit and visualized with an Olympus FV1000 CSLM as described above.
Bacterial viability was determined using the LIVE/DEAD BacLight Bacterial Viability assay. The images show horizontal optical sections from the midpoint of the biofilms flanked by vertical optical sections in biofilms treated with panel A showing tobramycin alone and panel B showing TMP+tobramycin.
Using the same protocol used in Example 3 for tobramycin, additional antibiotics were tested to aid in the elucidation of the mechanism of bacterial biofilm disruption in the absence of photoactivation.
Bacterial viability was determined using the LIVE/DEAD BacLight Bacterial Viability assay. Cells staining red are considered dead while cells staining green are alive. […] In summary, panels C, E, G, I, K and M received the respective antibiotic alone, and panels B, D, F, H, J, L and N were treated with the combination of TMP and antibiotic.

pUCP18 plasmid DNA = test: TMP induced degradation of plasmid DNA, agarose gel electrophoresis; type: biochemical; details: 100 or 225 μM TMP
Procedure: Plasmid DNA with and without TMP was irradiated for designated times. Prior to light exposure, samples of DNA supplemented with TMP were collected and incubated in the dark for comparison. DNA was examined using agarose gel electrophoresis.
The untreated control samples had the three expected forms of plasmid DNA: covalently closed circles, relaxed circular, and linear cut (FIG. 3: lanes 1 and 7). Plasmid DNA exposed to light only appeared similar to the control (FIG. 3: lanes 2 and 8).

[2] = test system: extracellular DNA in P. aeruginosa wild-type biofilms; test: Quantification of extracellular biofilm DNA with DNA stains such as Pico Green; type: cell-based, Pseudomonas aeruginosa; details: data not shown, possible competition of TMP with Pico Green
[3] = test system: P. aeruginosa PAO1 wild-type biofilms; test: CSLM of static biofilms with LIVE/DEAD BacLight viability assay; type: cell-based, Pseudomonas aeruginosa
Procedure: (§1) P. aeruginosa PAO1 wild-type and isogenic pqsA mutant strain were obtained from Eb Pesci (East Carolina University School of Medicine). P. aeruginosa strains were grown aerobically with shaking in Minimal Salts medium (40 mM K2HPO4, 20 mM KH2PO4, 7.6 mM [NH4]2SO4, 0.2 mM MgSO4.7H2O, 9.2×10^−3 mMFeCl3.6H2O, 0.2% [wt/vol] glucose; adjusted pH 7.0) at 37° C. (4, 17). For static biofilms, P. aeruginosa strains were grown overnight in Minimal Salts medium at 37° C. with shaking. The following day, bacteria were diluted in fresh media to an OD590nm of 0.15. Five hundred microliters of the standardized culture was added to sterile polystyrene cuvettes and incubated statically for 24 h at 37° C. For examination of static biofilms using confocal laser scanning microscopy (CSLM), sterile microscope slides were submerged in standardized cell suspensions and incubated statically at 37° C. for 24 h.
(§2) Samples were irradiated for various exposure times at an intensity of 192 Joules/cm^2.
Negative control slides were transferred to 50 ml tubes containing only PBS. […] Bacterial viability was assessed in biofilm cultures using the LIVE/DEAD BacLight bacterial viability assay (Molecular Probes Inc., Eugene, Oreg.), containing SYTO9 and propidium iodide dyes. Biofilms were visualized with an Olympus FV1000 CSLM (Olympus America, Center Valley, Pa.) using a 60× oil immersion objective. Biofilm images were acquired in 0.4 μm optical sections for the entire thickness of the biofilm.
Bacterial viability was determined using the LIVE/DEAD BacLight Bacterial Viability assay. The cells in panels C-F show significant staining in red (considered dead) while cells in panels A, B, G and H show predominate staining in green (alive). […] The few remaining attached cells were nonviable.

[4] = test system: P. aeruginosa pqsA mutant biofilms; type: cell-based, Pseudomonas aeruginosa
Procedure: as §1, §2
Negative control slides were transferred to 50 ml tubes containing only PBS. […] Bacterial viability was assessed in biofilm cultures using the LIVE/DEAD BacLight bacterial viability assay (Molecular Probes Inc., Eugene, Oreg.), containing SYTO9 and propidium iodide dyes. […]
Bacterial viability was determined using the LIVE/DEAD BacLight Bacterial Viability assay.

[5] = test system: P. aeruginosa PAO1 wild-type biofilms; test: Viable plate counts of cells from static biofilms after TMP and irradiation; type: cell-based, Pseudomonas aeruginosa; details: wild-type PAO1, 225 μM TMP, 10 min of irradiation
Procedure: as §1, §2
(§3) Static biofilms formed in sterile polystyrene cuvettes, as described above, were used to quantify cell survival. […] Cells released from the biofilm following treatment were collected from the supernatant by centrifugation and resuspended in PBS. The remaining attached biofilm was washed once and resuspended in PBS. The number of viable cells in the supernatant and attached biofilms following treatment were determined by plating on LB (1.5% agar) plates that were incubated for 24 h at 37° C.
(§4) Cells were collected from the supernatant of treated biofilms, as well as from the remaining attached biofilm. Cell suspensions were diluted and plated onto LB (1.5% agar) plates and incubated 24 h at 37° C. CFU were used to determine the surviving fraction. […] The recovered supernatants contained the cells sloughed off as the result of TPM exposure and irradiation.

[6] = test system: P. aeruginosa pqsA mutant biofilms; test: as above; type: cell-based, Pseudomonas aeruginosa; details: 225 μM TMP, irradiated 10 min
Procedure: as §1, §2, §3, §4

[7] = test system: P. aeruginosa PAO1 planktonic cell populations; details: TMP 2.5 mg ml^−1; cited from earlier work
[8] = test system: wild-type PAO1 isolates grown in biofilms; details: cited from earlier work
S. aureus = details: cited from earlier work

## CC1(C)S[C@@H]2[C@H](NC(=O)C(C(=O)O)c3ccccc3)C(=O)N2[C@H]1C(=O)O (stereo partly drawn) [carbenicillin]
[1]; dark
  gain in killing by the addition of TMP to the antibiotic: no enhanced killing
  red (dead) staining with antibiotic + TMP versus antibiotic alone (FIGS. 5A and 5B): little or no increase in red staining
  Effect on P. aeruginosa biofilm cells, TMP + Antibiotic, pH 7: −

## O=C(O)c1cn(C2CC2)c2cc(N3CCNCC3)c(F)cc2c1=O [Ciprofloxacin]
[1]; dark
  gain in killing by the addition of TMP to the antibiotic: no gain in killing
  red (dead) staining with antibiotic + TMP versus antibiotic alone (FIGS. 5A and 5B): little or no increase in red staining
  Effect on P. aeruginosa biofilm cells, TMP + Antibiotic, pH 7: +

## gentamicin
[1]; dark
  gain in killing by the addition of TMP to the antibiotic: behaved similarly to tobramycin
  red (dead) staining with antibiotic + TMP versus antibiotic alone (FIGS. 5A and 5B): significant increased red staining

## CN[C@H](CC(C)C)C(=O)N[C@H]1C(=O)N[C@@H](CC(N)=O)C(=O)N[C@H]2C(=O)N[C@H]3C(=O)N[C@H](C(=O)N[C@H](C(=O)O)c4cc(O)cc(O)c4-c4cc3ccc4O)[C@H](O)c3ccc(c(Cl)c3)Oc3cc2cc(c3O[C@@H]2O[C@H](CO)[C@@H](O)[C@H](O)[C@H]2O[C@H]2C[C@](C)(N)[C@H](O)[C@H](C)O2)Oc2ccc(cc2Cl)[C@H]1O [vancomycin]
[1]; dark
  gain in killing by the addition of TMP to the antibiotic: substantially enhanced killing
  red (dead) staining with antibiotic + TMP versus antibiotic alone (FIGS. 5A and 5B): predominately red staining

## NC[C@H]1O[C@H](O[C@H]2[C@H](O)[C@@H](O[C@H]3O[C@H](CO)[C@@H](O)[C@H](N)[C@H]3O)[C@H](N)C[C@@H]2N)[C@H](O)[C@@H](O)[C@@H]1O [kanamycin]
[1]; dark
  Effect on P. aeruginosa biofilm cells, TMP + Antibiotic, pH 7: +

## C[n+]1ccc(-c2c3nc(c(-c4cc[n+](C)cc4)c4ccc([nH]4)c(-c4cc[n+](C)cc4)c4nc(c(-c5cc[n+](C)cc5)c5ccc2[nH]5)C=C4)C=C3)cc1.Cc1ccc(S(=O)(=O)[O-])cc1.Cc1ccc(S(=O)(=O)[O-])cc1.Cc1ccc(S(=O)(=O)[O-])cc1.Cc1ccc(S(=O)(=O)[O-])cc1 [TMP, 5,10,15,20-tetrakis(1-methyl-pyridino)-21H,23H-porphine, tetra-p-tosylate salt]
pUCP18 plasmid DNA; irradiation for 5 or 30 min
  degradation of plasmid DNA: complete degradation
pUCP18 plasmid DNA; nonirradiated
  migration of plasmid DNA in gel without photoactivation: retarded migration of DNA; also recorded: migration was retarded
[2]; TMP and light
  biofilm DNA after TMP and light: decrease was observed in biofilm DNA
[2]; TMP, no light
  biofilm DNA after TMP in the absence of light: decrease in biofilm DNA
[3]; wild-type PAO1, 100 μM TMP, irradiated 10 min
  biofilm density and cell viability (CSLM, LIVE/DEAD): decrease in biofilm density and the majority of cells within the biofilm were non-viable
[3]; wild-type PAO1, 225 μM TMP, 10 min of irradiation
  biofilm disruption and clearance (CSLM, LIVE/DEAD): nearly complete disruption and clearance; also recorded: completely disrupted with few cells remaining attached
[3]; wild-type PAO1, 225 μM TMP, dark
  biofilm structure and cell viability without photoactivation (dark toxicity): expanded in volume without a loss of cell viability; also recorded: no dark toxicity; also recorded: did not lead to clearance of wild-type biofilms
Human fibroblasts
  toxicity to human fibroblasts: does not appear to be toxic to human fibroblasts
[4]; 225 μM TMP, dark
  cell viability and biofilm architecture without photoactivation: did not affect cell viability or disrupt the architecture
[4]; 100 or 225 μM TMP, irradiated 10 min
  cell viability of attached cells (CSLM, LIVE/DEAD): decrease in cell viability of attached cells; also recorded: high levels of killing
[5]; attached cells
  decrease in viable cells in the attached biofilm population: 4.1 log10
[5]; supernatant cells
  reduction in the number of viable cells in the recovered supernatants: 4.5 log10
[6]; attached cells
  decrease in cell viability of attached cells: 3.9 log10
[6]; supernatant cells
  reduction in cell viability of cells collected from supernatants: 4.2 log10
[7]
  reduction of planktonic cell populations: > 10^2 cfu ml^−1
[8]; TMP 5.0 mg ml^−1, irradiated for 5 min
  reduction of wild-type PAO1 isolates grown in biofilms: 1.2 log10
[8]; same level of killing as planktonic (>10^2 cfu ml^−1)
  TMP concentration necessary to achieve the same level of killing in bacteria enmeshed within biofilms: 5.0 mg/mL
S. aureus; TMP alone
  S. aureus survival: reduce S. aureus survival
S. aureus; TMP combined with vancomycin
  effect on established S. aureus biofilms: disrupt established biofilms

## NC[C@H]1O[C@H](O[C@H]2[C@H](O)[C@@H](O[C@H]3O[C@H](CO)[C@@H](O)[C@H](N)[C@H]3O)[C@H](N)C[C@@H]2N)[C@H](N)C[C@@H]1O [tobramycin]
[1]; TMP 225 μM 10 min then tobramycin 100 μg ml^−1 2 h, dark
  cell viability and biofilm clearance, TMP then antibiotic: predominate amount of cells staining red (dead); also recorded: substantial clearance of the biofilms and greater loss of cell viability throughout the biofilms than with either single treatment; also recorded: significant biofilm clearance and enhanced killing of cells
[1]; dark conditions, pH range of 4.0 to 8.0
  effect of pH on the combination of tobramycin and TMP: enhancement of killing
[1]; tobramycin alone 100 μg ml^−1, 2 h, dark, no TMP
  cell viability and biofilm clearance, antibiotic alone: cells predominately staining green (alive); also recorded: reduction in cell viability which was limited to cells near the surface of the biofilms; also recorded: did not result in substantial biofilm clearance and led to minimal killing of biofilm associated cells
